Entries after “also recorded” stand apart in the source; their conditions may differ.
Legend:
Rop7-II CD8 T cells [1] = test: Cytokine secretion with peptide-loaded BMDC; type: cell-based, mouse; conditions: 1 or 0.01 µg/ml, supernatant after 3 days, ELISA or multiplex, n = 3 technical replicates
From the text: (§1) Figure 4. Rop7 CD8 T cells proliferation and cytokine secretion upon Rop7 peptide variant stimulation. Sorted CD8^+ tetramer^+ T cells from pooled lymph nodes and spleen of Rop7-I, -II or -III heterozygous mice were labelled with CFSE and stimulated with BMDC loaded with Rop7 peptide variants at indicated concentrations. (a) Histograms show CFSE dilution on sorted CD8 T cells from Rop7-I, -II or -III mice stimulated with IPAAAGRFF peptide-loaded BMDC after 3 days of stimulation. (b) IL-2, TNFα and IFNγ concentration measured in culture supernatant after 3 days of stimulation. Mean of three technical replicates (T-cell stimulation). Error bars: standard deviation (n = 3). Representative of three independent experiments. (c) Bar histograms show the percentage of living cells (Zombie Aqua negative) after 3 days of stimulation with IPAAAGRFF-loaded BMDC. Mean of three technical replicates (T-cell stimulation). Error bars: standard deviation (n = 3). Representative of three independent experiments. (d) Histograms show CFSE dilution on sorted CD8 T cells from Rop7-I or -II heterozygous mice stimulated with IPANAGRFF peptide-loaded BMDC after 3 days of stimulation. (e) IL-2, TNFα and IFNγ concentration measured in culture supernatant after 3 days of stimulation. Mean of three technical replicates (T-cell stimulation). Error bars: standard deviation (n = 3). Representative of three independent experiments. (f) Bar histograms show the percentage of living cells (Zombie Aqua negative) after 3 days of stimulation with IPANAGRFF-loaded BMDC. *p < 0.05, **p < 0.01, ***p < 0.001 (Student's t-test).
(§2) Cytokine concentrations were measured by ELISA according to the manufacturer's instructions or by multiplex assay (Eve Technologies, Calgary, Alberta, Canada).

Rop7-II CD8 T cells [2] = test: T-cell viability (Zombie Aqua) with peptide-loaded BMDC; type: cell-based, mouse; conditions: 3 days
From the text: as §1, with “Representative of three independent experiments. (f) Bar histograms show the percentage of living cells (Zombie Aqua negative) after 3 days of stimulation with IPANAGRFF-loaded BMDC. *p < 0.05, **p < 0.01, ***p < 0.001 (Student's t-test).” left out

[3] = tested on: CD8 T cells from Rop7-III mice; test: Peptide-loaded H-2 L^d tetramer staining; type: cell-based, mouse; conditions: caged tetramer approach, H-2 L^d tetramers loaded with peptide, splenocytes, flow cytometry
Protocol: (§3) Figure 2. Binding of Rop7-I, -II and -III to Rop7 peptide variants. (a) Splenocytes from WT or Rop7-I, -II and -III heterozygous mice were stained for CD8 and with H-2 L^d tetramers loaded with the indicated peptides. Histograms show H-2 L^d-Rop7 variants staining on CD8 T cells from WT or Rop7 mice. (b) TCRs from Rop7-I, -II and -III T cells were recombinantly expressed and refolded. Binding affinities for IPAAAGRFF-, IPAFAGRFF- and IPANAGRFF-loaded H-2 L^d were measured with a BIAcore 3000 and analysed using an equilibrium model. The raw data (black lines), fits (red lines) and calculated dissociation constant are shown in each panel.
(§4) Purified anti-CD3 (clone 17A2) and anti-CD28 (clone 37.51) antibodies, fluorescently labelled Granzyme B (clone 16G6), CD3ɛ (clone 145-2C11), CD4 (clone GK1.5), CD8 (clone 53-6.7), CD45.1 (clone A20) specific antibodies were purchased from eBioscience. Biotinylated anti-CD4 (clone GK1.5), anti-CD19 (clone 1D3), fluorescently labelled CD25 (clone 7D4), CD44 (clone 1M7), CD69 (clone H1.2F3), TNFα (clone MP6-XT22) and actin (clone ab-5) specific antibodies were purchased from BD Biosciences. Fluorescently labelled CD5 (clone 53-7.3), CD28 (clone E18), CD62 L (clone mel-14), Ki-67 (clone 16A8) specific antibodies and Zombie Aqua (cat. no. 423101) were purchased from Biolegend. Fluorescently labelled anti-IFNγclone 9004) was purchased from Sigma. Anti-phospho-tyrosine residue (clone 4G10) was purchased from Millipore. Anti-phopho-ERK (Thr202/Tyr204) (D13.14.4E, cat. no. 4370) and anti-phospho-S6 (Ser235/236) (D57.2.2E, cat. no. 4858) were purchased from Cell Signalling Technology. Horseradish peroxidase-conjugated anti-mouse antibody was purchased from GE Healthcare (cat. no. NXA931). Horseradish peroxidase-conjugated goat anti-rabbit antibody was purchased from Southern Biotech (cat. no. 4041-05). CD8 T cells isolation kit (130-095-236) and anti-biotin beads (130-090-485) were purchased from Miltenyi and used according to the manufacturer's instructions. ELISA kits for the detection of mouse IL-2 (cat. no. 431001), IFNγ (cat. no. 430801) and TNFα (cat. no. 430901) were purchased from BioLegend. ELISA for mouse IgM (cat. no. 88-50470-22) and IgG (cat. no. 88-50400-22) were purchased from Ebioscience. Recombinant mouse GM-CSF (cat. no. 315-03), IL-2 (212-12) and IL-4 (cat. no. 214-14) were purchased from Peprotech. Carboxyfluorescein succinimidyl ester (CFSE) was purchased from Sigma (cat. no. 21888). Protease inhibitor cocktail was purchased from Roche (cat. no. 11836153001). H-2 L^d tetramers were produced and used as described elsewhere or obtained from the NIH tetramer facility. All peptides were produced by the MIT biopolymer facility through standard solid-phase peptide synthesis or purchased from Pepceuticals, UK.

[4] = tested on: CD8 T cells from Rop7-I mice; test: Peptide-loaded H-2 L^d tetramer staining; type: cell-based, mouse; conditions: caged tetramer approach, H-2 L^d tetramers loaded with peptide, splenocytes, flow cytometry
Protocol: as §3, §4

[5] = tested on: CD8 T cells from Rop7-II mice; test: Peptide-loaded H-2 L^d tetramer staining; type: cell-based, mouse; conditions: caged tetramer approach, H-2 L^d tetramers loaded with peptide, splenocytes, flow cytometry
Protocol: as §3, §4

Rop7-II CD8 T cells [6] = test: T-cell proliferation (CFSE dilution) with peptide-loaded BMDC; type: cell-based, mouse; conditions: 1 or 0.01 µg/ml, 3 days
From the text: as §1
(§5) Anti-CD3/28: plate-bound anti-CD3 (clone 17A2) and anti-CD28 (clone 37.51) at indicated concentrations in flat bottom 96-well plates in the presence of 10 ng ml^–1 recombinant mouse IL-2 when specified. BMDC: dendritic cells differentiated from bone marrow progenitors for 5–7 days in GM-CSF and IL-4 containing medium loaded with Rop7 peptide (final concentration 1 or 0.01 µg ml^−1). When indicated, 10–20 × 10^6 cells per millilitre were labelled in PBS 2.5 µM CFSE for 2 min at room temperature.

Rop7-I CD8 T cells = test: as above; type: cell-based, mouse; conditions: 1 or 0.01 µg/ml, 3 days
From the text: as §1, §5

Rop7-III TCR = test: SPR affinity of H-2 L^d-peptide complexes for immobilised recombinant Rop7-III TCR (BIAcore 3000); type: binding, mouse; conditions: peptide loaded in H-2 L^d as analyte, 1 to 200 µM, 25°C, biotinylated TCR on streptavidin CM5 chip, equilibrium model, at least duplicates; read-out: dissociation constant Kd
Protocol: as §3
For the Rop7-I, -II and -III TCRs, the α and β chains were cloned individually in the bacterial expression vector pET28a. Residues threonine 46 of the α chain's and serine 57 of the β chain's constant regions were mutated to cysteine to enable non-native disulfide bridge formation within the heterodimer complex. A biotinylation sequence was introduced at the C terminus of the β chain. The chains were separately expressed in Escherichia coli. BL21-DE3 (pLysS) and obtained as inclusion bodies and dissolved in 8 M urea, 25 mM MES, 1 mM EDTA, 1 mM DTT at pH 6.0. […] The final response was calculated after subtracting the control cell response. […] Equilibrium Kd values were calculated by nonlinear curve fitting of background-subtracted data using PRISM software.

Rop7-III CD8 T cells [7] = test: Cytokine secretion with peptide-loaded BMDC; type: cell-based, mouse; conditions: 1 or 0.01 µg/ml, supernatant after 3 days, ELISA or multiplex, n = 3 technical replicates
From the text: as §1, §2

Rop7-III CD8 T cells [8] = test: T-cell proliferation (CFSE dilution) with peptide-loaded BMDC; type: cell-based, mouse; conditions: 1 or 0.01 µg/ml, 3 days
From the text: as §1, §5

Rop7 CD8 T cells = conditions: BMDC loaded with Rop7 peptide 1 µg/ml, 72 h, then peptide-loaded target splenocytes 16–20 h
Protocol: A measure of 1–2 × 10^5 sorted CD4^+ or CD8^+ tetramers^+ cells from pooled spleen and lymph nodes of Rop7-I, -II or -III mice were stimulated in complete RPMI in 96-well round bottom plates together with 0.5 × 10^5 Rop7 peptide-loaded BMDC (final concentration 1 µg ml^−1). After 72 h, cells were harvested and incubated with 10^5 total cells of a 1 to 1 mixture of CFSE-labelled, Rop7 peptide-loaded CD45.1 BALB/c splenocytes (final concentration 1 µg ml^−1) and control, CFSE-labelled, DMSO-treated CD45.2 BALB/c splenocytes in 96-well round bottom plates. After 16–20 h the ratio of living (propidium iodide negative) CD45.1 versus CD45.2 cells was determined by flow cytometry.

Sequence	IL-2, TNFα and IFNγ production (Rop7-II CD8 T cells [1])	cell death / living cells (Rop7-II CD8 T cells [2])	tetramer binding [3]	tetramer binding [4]	tetramer binding [5]	proliferation (Rop7-II CD8 T cells [6])	proliferation (Rop7-I CD8 T cells)	Kd (Rop7-III TCR)	IL-2, TNFα and IFNγ production (Rop7-III CD8 T cells [7])	proliferation (Rop7-III CD8 T cells [8])	cytotoxicity (Rop7 CD8 T cells)
IPANAGRFF	produced significantly fewer cytokines; also recorded: equally poor ability to secrete cytokines	more prone to cell death at both peptide concentrations; also recorded: enhanced cell death compared with Rop7-I CD8 T cells	not Rop7-III T cells bound	Rop7-I and -II, but not Rop7-III T cells bound	Rop7-I and -II, but not Rop7-III T cells bound	able to proliferate upon stimulation	able to proliferate upon stimulation	> 200 µM	–	–	–
IPAAAGRFF	produced overall less IL-2, TNFα and IFNγ; also recorded: secreted significantly fewer cytokines compared with Rop7-I and -III CD8 T cells	significantly increased tendency to cell death at a lower degree of stimulation; also recorded: an increased proportion of cells died as the strength of stimulus decreased	bound tetramers loaded with the nominal antigen (IPAAAGRFF), with little quantitative variation	bound tetramers loaded with the nominal antigen (IPAAAGRFF), with little quantitative variation	slightly less avid than binding to Rop7-I or -III	able to proliferate upon antigenic stimulation in a dose-dependent manner	able to proliferate upon antigenic stimulation in a dose-dependent manner	–	secreted increased amounts of IL-2 and IFNγ but not TNFα when compared with Rop7-I; also recorded: produced significantly more IL-2 and IFNγ, but not TNFα, compared with Rop7-I CD8 T cells	able to proliferate upon antigenic stimulation in a dose-dependent manner	all Rop7 CD8 T cells were cytotoxic, albeit with subtle but notable differences
IPAFAGRFF	–	–	only Rop7-II T cells bound	only Rop7-II T cells bound	only Rop7-II T cells bound	–	–	> 200 µM	–	–	–
